In ChEMBL document CHEMBL5137030 (Eur J Med Chem, 2022):
Calls of active or inactive are those of the source. No cut-off for these calls is given here.

Assays:
Human alphaherpesvirus 2 [1] = assay: (§1) Antiviral activity against HSV-2 infected in African green monkey Vero cells assessed as inhibition of viral replication by measuring log suppression of virus-induced cytopathic effect at 5 uM incubated for 1 hr followed by washing with PBS and subsequent treatment with compound for 24 hrs by plaque assay; assay type: functional; details: time 25 hrs
Human alphaherpesvirus 2 [2] = assay: as §1, with “1” for “5”; assay type: functional; details: time 25 hrs
Human alphaherpesvirus 1 [3] = assay: as §1, with “HSV-1” for “HSV-2”; assay type: functional; details: time 25 hrs
Human alphaherpesvirus 1 [4] = assay: as §1, with “HSV-1” for “HSV-2”, “1” for “5”; assay type: functional; details: time 25 hrs
Human alphaherpesvirus 1 [5] = assay: Antiviral activity against HSV-1 infected in African green monkey Vero cells assessed as inhibition of viral replication incubated for 1 hr followed by washing with PBS and subsequent treatment with compound for 24 hrs by plaque reduction assay; assay type: functional, organism-based; details: Human alphaherpesvirus 1, Vero
Human alphaherpesvirus 2 [6] = assay: Antiviral activity against HSV-2 infected in African green monkey Vero cells assessed as inhibition of viral replication incubated for 1 hr followed by washing with PBS and subsequent treatment with compound for 24 hrs by plaque reduction assay; assay type: functional, organism-based; details: Human alphaherpesvirus 2, Vero
Vero = assay: Cytotoxicity against African green monkey Vero cells assessed as reduction in cell viability incubated for 24 hrs by MTS assay; details: chlorocebus sabaeus
[7] = Cytotoxicity against human HepDES19 cells assessed as reduction in cell viability incubated for 72 hrs by MTS assay; assay type: toxicity, cell-based; details: hepdes19, 72 h
Human alphaherpesvirus 2 [8] = assay: Antiviral activity against wild-type HSV-2 186 infected in African green monkey Vero cells assessed as inhibition of viral replication incubated for 1 hr followed by washing with PBS and subsequent treatment with compound for 24 hrs by plaque reduction assay; assay type: functional, organism-based; details: Human alphaherpesvirus 2, 186, Vero
Human alphaherpesvirus 2 [9] = assay: Antiviral activity against thymidine kinase-deficient ACV-resistant HSV-2 186 TKdeltakpn infected in African green monkey Vero cells assessed as inhibition of viral replication incubated for 1 hr followed by washing with PBS and subsequent treatment with compound for 24 hrs by plaque reduction assay; assay type: functional, organism-based; details: Human alphaherpesvirus 2, 186 TKdeltakpn
Human alphaherpesvirus 2 [10] = assay: Antiviral activity against HSV-2 333vhsB infected in African green monkey Vero cells assessed as inhibition of viral replication by measuring reduction in virus-induced cytopathic effect at 50 uM incubated for 20 hrs by colorimetric analysis; assay type: functional, organism-based
[11] = Half life in mouse liver microsomes at 2 uM in presence of NADPH by LC/MS/MS analysis; assay type: ADME, Microsome
[12] = Half life in human liver microsomes at 2 uM in presence of NADPH by LC/MS/MS analysis; assay type: ADME, Microsome
[13] = Apparent permeability of the compound across apical to basolateral side in human Caco-2 cells at 10 uM incubated for 2 hrs; assay type: ADME, cell-based; details: caco-2, 2 h
[14] = Half-life in BALB/c mouse at 3 mg/kg, po and 1 mg/kg, iv by LC/MS/MS analysis; assay type: ADME, organism-based; details: in vivo
[15] = Oral bioavailability in BALB/c mouse at 3 mg/kg by LC/MS/MS analysis; assay type: ADME, organism-based; details: in vivo

Row | Structure (SMILES) | log(activity) (Human alphaherpesvirus 2 [1]) | log(activity) (Human alphaherpesvirus 2 [2]) | log(activity) (Human alphaherpesvirus 1 [3]) | log(activity) (Human alphaherpesvirus 1 [4]) | EC50 (Human alphaherpesvirus 1 [5]) [nM] | EC50 (Human alphaherpesvirus 2 [6]) [nM] | CC50 (Vero) [nM] | CC50 [7] [nM] | EC50 (Human alphaherpesvirus 2 [8]) [nM] | EC50 (Human alphaherpesvirus 2 [9]) [nM] | Activity (Human alphaherpesvirus 2 [10]) | t1/2 [11] [min] | t1/2 [12] [min] | Papp [13] | t1/2 [14] [min] | bioavailability [15] [%]
1 | Cc1cc(C2CCCCC2)n(O)c(=O)c1 [CICLOPIROX] | 5.5 | 2.6 | 4.62 | 1.66 | 270 | 500 | > 100000 | 13000 | < 300 | < 300 | – | – | – | – | – | –
2 | Cc1cc(Cc2ccc(-c3ccccc3)cc2)n(O)c(=O)c1 | 4.6 | 3.09 | 4.74 | 4.37 | 210 | 140 | – | 12000 | < 300 | < 300 | Active | < 5 | < 5 | 1.35 10^-6 cm/s | < 60 | 10
3 | Cc1cc(Cc2cccc3ccccc23)n(O)c(=O)c1 | 4.33 | 3.12 | 4.81 | 2.99 | – | 220 | 93100 | 25000 | < 300 | < 300 | Active | < 5 | < 5 | 6.46 10^-6 cm/s | < 60 | 10
